{
  "source": "patent US7109380B2",
  "about": "“Cyclopentenedione antifungal compounds and methods for their use” (The University of Mississippi, priority 2004, dated 2006)",
  "key": {"[1]": {"system": "Cryptococcus neoformans ATCC 90113", "assay": "In vitro antifungal susceptibility testing (modified NCCLS method)", "type": "cell-based", "details": "for IC50: Cryptococcus neoformans, ATCC90113, read-out: IC50 (50% inhibitory concentration)"}, "C. albicans ATCC 90028": {"system": "C. albicans ATCC 90028", "assay": "In vitro antimicrobial assay (modified NCCLS), Candida media pH 4.5", "type": "cell-based, Candida albicans", "details": "C. albicans ATCC 90028, pH 4.5, Table 3; for IC50: read-out: IC50 (50% inhibitory concentration)"}, "C. glabrata ATCC 90030": {"system": "C. glabrata ATCC 90030", "assay": "In vitro antimicrobial assay (modified NCCLS), Candida media pH 4.5", "type": "cell-based, Candida glabrata", "details": "C. glabrata ATCC 90030, pH 4.5; for IC50: read-out: IC50 (50% inhibitory concentration)"}, "C. krusei ATCC 6258": {"system": "C. krusei ATCC 6258", "assay": "In vitro antimicrobial assay (modified NCCLS), Candida media pH 4.5", "type": "cell-based, Candida krusei", "details": "C. krusei ATCC 6258, pH 4.5; for IC50: Pichia kudriavzevii, ATCC6258, read-out: IC50 (50% inhibitory concentration)"}, "[2]": {"system": "M. intracellulare ATCC 23068", "assay": "In vitro antibacterial assay (modified method of Franzblau, Alamar Blue)", "type": "cell-based", "details": "Mycobacterium intracellulare, ATCC23068, M. intracellulare ATCC 23068; for IC50: read-out: IC50 (50% inhibitory concentration)"}, "[3]": {"system": "Candida albicans ATCC 90028", "assay": "In vitro antifungal susceptibility testing (modified NCCLS method), media pH 7.3", "type": "cell-based", "details": "Candida albicans ATCC 90028, Table 1"}, "[4]": {"details": "Cr. neoformans ATCC 90113, Table 3"}, "[5]": {"details": "Candida albicans, ATCC90028, read-out: MIC"}, "[6]": {"details": "Nakaseomyces glabratus, ATCC90030"}, "[7]": {"details": "Cryptococcus neoformans ATCC 90113, Table 1"}},
  "note": "Where “and” joins values, the source holds several entries; their conditions need not be identical. Equal values may be shown once. Read-outs that look alike come from different tables or passages of the source.",
  "data": [
    {"smiles": "CC(=O)OC(/C=C/c1ccccc1)=C1/C(=O)C=C(C)C1=O", "note": "[Compound 8]", "values": [
      {"measurement": "IC50", "setting": "[1]; [4]", "result": 4.5, "unit": "µg/mL"},
      {"measurement": "IC50", "setting": "C. albicans ATCC 90028; Candida albicans, ATCC90028", "result": 1, "unit": "µg/mL"},
      {"measurement": "MIC", "setting": "C. albicans ATCC 90028; [5]", "result": 10, "unit": "µg/mL"},
      {"measurement": "IC50", "setting": "C. glabrata ATCC 90030; [6]", "result": 5.5, "unit": "µg/mL"},
      {"measurement": "IC50", "setting": "C. krusei ATCC 6258", "result": 9, "unit": "µg/mL"},
      {"measurement": "MIC", "setting": "[2]", "result": 20, "unit": "µg/mL"},
      {"measurement": "IC50", "setting": "[2]", "result": 15, "unit": "µg/mL"},
      {"measurement": "MBC", "setting": "[2]; read-out: MBC (Minimum Bactericidal Concentration)", "result": 20, "unit": "µg/mL"}
    ]},
    {"smiles": "C[C@@H]1[C@H](O)[C@@H](C)/C=C/C=C/C=C/C=C/C=C/C=C/C=C/[C@H](O[C@@H]2O[C@H](C)[C@@H](O)[C@H](N)[C@@H]2O)C[C@@H]2O[C@](O)(C[C@@H](O)C[C@@H](O)[C@H](O)CC[C@@H](O)C[C@@H](O)CC(=O)O[C@H]1C)C[C@H](O)[C@H]2C(=O)O", "note": "[Amphotericin B, reference compound]", "values": [
      {"measurement": "MFC (Minimum Fungicidal Concentration)", "setting": "[3]", "result": 5.00, "unit": "µg/mL"},
      {"measurement": "MIC (Minimum Inhibitory Concentration)", "setting": "[3]", "result": 2.50, "unit": "µg/mL"},
      {"measurement": "IC50 (50% inhibitory concentration)", "setting": "[1]; [4]", "result": 0.50, "unit": "µg/mL"},
      {"measurement": "MFC", "setting": "[1]; [4]", "result": 1.25, "unit": "µg/mL"},
      {"measurement": "MIC", "setting": "[1]; [4]", "result": 1.25, "unit": "µg/mL"},
      {"measurement": "MFC (Minimum Fungicidal Concentration)", "setting": "[1]; [7]", "result": 2.5, "unit": "µg/mL"},
      {"measurement": "MIC (Minimum Inhibitory Concentration)", "setting": "[1]; [7]", "result": 2.5, "unit": "µg/mL"},
      {"measurement": "IC50 (50% inhibitory concentration)", "setting": "C. albicans ATCC 90028", "result": 0.45, "unit": "µg/mL"},
      {"measurement": "MFC", "setting": "C. albicans ATCC 90028", "result": 1.25, "unit": "µg/mL"},
      {"measurement": "MIC", "setting": "C. albicans ATCC 90028", "result": 1.25, "unit": "µg/mL"},
      {"measurement": "IC50 (50% inhibitory concentration)", "setting": "C. glabrata ATCC 90030", "result": 0.20, "unit": "µg/mL"},
      {"measurement": "MFC", "setting": "C. glabrata ATCC 90030", "result": 1.25, "unit": "µg/mL"},
      {"measurement": "MIC", "setting": "C. glabrata ATCC 90030", "result": 1.25, "unit": "µg/mL"},
      {"measurement": "IC50 (50% inhibitory concentration)", "setting": "C. krusei ATCC 6258", "result": 0.45, "unit": "µg/mL"},
      {"measurement": "MFC", "setting": "C. krusei ATCC 6258", "result": 1.25, "unit": "µg/mL"},
      {"measurement": "MIC", "setting": "C. krusei ATCC 6258", "result": 1.25, "unit": "µg/mL"}
    ]},
    {"smiles": "CC1=CC(=O)/C(=C(O)/C=C/c2ccccc2)C1=O", "note": "[Compound 2, coruscanone B]", "values": [
      {"measurement": "MIC", "setting": "[3]; ATCC90028, read-out: MIC (Minimum Inhibitory Concentration)", "result": 50, "unit": "µg/mL"},
      {"measurement": "IC50", "setting": "[1]; [4]", "result": 20, "unit": "µg/mL"},
      {"measurement": "IC50", "setting": "C. albicans ATCC 90028; Candida albicans, ATCC90028", "result": 1, "unit": "µg/mL"},
      {"measurement": "MFC", "setting": "C. albicans ATCC 90028; Candida albicans, ATCC90028, read-out: MFC", "result": 5, "unit": "µg/mL"},
      {"measurement": "MIC", "setting": "C. albicans ATCC 90028; [5]", "result": 2.5, "unit": "µg/mL"},
      {"measurement": "IC50", "setting": "C. glabrata ATCC 90030; [6]", "result": 1.5, "unit": "µg/mL"},
      {"measurement": "MFC", "setting": "C. glabrata ATCC 90030; Nakaseomyces glabratus, ATCC90030, read-out: MFC", "result": 5, "unit": "µg/mL"},
      {"measurement": "MIC", "setting": "C. glabrata ATCC 90030; Nakaseomyces glabratus, ATCC90030, read-out: MIC", "result": 2.5, "unit": "µg/mL"},
      {"measurement": "IC50", "setting": "C. krusei ATCC 6258", "result": 4.5, "unit": "µg/mL"},
      {"measurement": "MIC", "setting": "[2]", "result": 20, "unit": "µg/mL"},
      {"measurement": "IC50", "setting": "[2]", "result": 10, "unit": "µg/mL"},
      {"measurement": "melting point", "result": "125 °C and 124 °C"}
    ]}
  ]
}
